Test results published in patent publication US20150072967A1, “TAUROURSODEOXYCHOLIC ACID ATTENTUATES OR ABOLISHES FORMATION AND DEPOSITION OF AMYLOID-B PEPTIDE” (Metselex, Inc., priority 2012, published 2015).

Assays:
APP/PS1 mice [1] = experiment: Iba-I immunostaining (activated microglia); type: in vivo, mouse
Description: (§1) Transgenic mice and TUDCA treatment. APP/PS1 double-transgenic mice express human APP containing the KM670/671NL Swedish double mutation and human PS 1 carrying the L166P mutation under the control of a neuron-specific murine Thy-1 minigene promoter. The two transgenes cosegregate in these mice. APP/PS1 mice were maintained on a C57BL/6J genetic background and genotyped by PCR analysis of genomic DNA from tail biopsies. All animals were kept in standard animal cages under conventional laboratory conditions (12 h light/dark cycle, 22° C.), with ad libitum access to food and water. The animals were randomized for therapy trials and coded, and the operators remained double blinded to which treatment they received, until the completion of data collection. Male APP/PS1 transgenic mice and wild-type littermates were randomly assigned into four groups: TUDCA-treated and untreated (control) APP/PS1 mice and TUDCA-treated and untreated (control) wild-type mice. […]
(§2) Image analysis and semiquantification of immunofluorescence. Images were acquired with an Axioskop fluorescence microscope (Carl Zeiss GmbH, Hamburg, Germany). Semiquantitative analysis of mean fluorescence intensities (MFIs) of GFAP, Iba-I, and MAP2 were performed using NIH Image J software. […]

[2] = test system: CTGF, A2M, APOE, SORLA expression; experiment: Real-time PCR of lipid-metabolism mediators in brain; type: in vivo, mouse
Description: (§3) Transgenic mice and TUDCA treatment. APP/PS1 double-transgenic mice express human APP containing the KM670/671NL Swedish double mutation and human PS 1 carrying the L166P mutation under the control of a neuron-specific murine Thy-1 minigene promoter. The two transgenes cosegregate in these mice. APP/PS1 mice were maintained on a C57BL/6J genetic background and genotyped by PCR analysis of genomic DNA from tail biopsies. All animals were kept in standard animal cages under conventional laboratory conditions (12 h light/dark cycle, 22° C.), with ad libitum access to food and water. The animals were randomized for therapy trials and coded, and the operators remained double blinded to which treatment they received, until the completion of data collection. Male APP/PS1 transgenic mice and wild-type littermates were randomly assigned into four groups: TUDCA-treated and untreated (control) APP/PS1 mice and TUDCA-treated and untreated (control) wild-type mice. Animals were fed a diet of standard laboratory chow supplemented with either 0.4% (wt/wt) TUDCA (sodium salt; Prodotti Chimici e Alimentari S.p.A., Basaluzzo, Italy), or no bile acid, custom made by Harlan (Harlan Laboratories Models, S.L., Barcelona, Spain). Treatment was started when the mice were 2 months old and continued for 6 months. The dose and duration of TUDCA, whose pharmacokinetics has been extensively studied in rodents, were chosen based on pilot studies using APP/PS1 mice and other animal studies.
Real-time PCR. Total RNA from dissected hippocampus and frontal cortex was isolated with TRIzol (Invitrogen), according to the manufacturer's instructions. Samples were homogenized in TRIzol using a motor-driven Bio-vortexer (No 1083; Biospec Products, Bartlesfield, Okla.) and disposable RNAse/DNAse free sterile pestles (Thermo Scientific). […] Real-time quantitative PCR analysis was performed in the 7300 Real-Time PCR System (Applied Biosystems, Foster City, Calif., USA), using SYBR Green PCR master mix (Fermentas International Inc., Glen Burnie, Md., USA). Triplicate reactions were run per sample. The expression levels relative to GAPDH were calculated using the ΔΔCt method. TUDCA-untreated wild-type mice were used as the calibrator. The n-fold change in expression was obtained using the formula: 2^−ΔΔCt.

APP/PS1 mice [3] = experiment: GFAP immunofluorescence (activated astrocytes); type: in vivo, mouse; conditions: hippocampus and frontal cortex; TUDCA-treated APP/PS1 mice; p<0.05
Description: as §1
(§4) Image analysis and semiquantification of immunofluorescence. Images were acquired with an Axioskop fluorescence microscope (Carl Zeiss GmbH, Hamburg, Germany). Semiquantitative analysis of mean fluorescence intensities (MFIs) of GFAP, Iba-I, and MAP2 were performed using NIH Image J software. […] An intensity threshold was set and kept constant for all images analyzed. […]

γ-secretase = γ-secretase activity / APP processing by immunoblot of APP-CTFs and total Aβ; type: in vivo, mouse; conditions: brain tissue
Description: as §3
γ-secretase activity. Assessment of γ-secretase activity was performed by detection of the ˜7 KDa carboxyl terminal fragment (CTF)-γ cleavage product of APP. Briefly, 60 μg of total protein extracts were resolved electrophoretically in 10-20% Tris-Tricine gels (BioRad), and CTF-γ (and CTF-β) identified using an anti-APP, C-terminal rabbit polyclonal antibody (Sigma-Aldrich; 1:2000). After stripping, membranes were incubated with the primary mouse monoclonal antibody reactive to Aβ (6E10; Signet; 1:1000) to detect total Aβ peptide. Immunoreactivities were visualized as described above.

hepatocytes = conditions: DNA microarray; cited from earlier work
APP/PS1 mice [4] = experiment: Recognition, spatial and contextual fear memory; type: in vivo, mouse; conditions: transgenic mice vs control transgenic mice
Description: as §3, with “The dose and duration of TUDCA, whose pharmacokinetics has been extensively studied in rodents, were chosen based on pilot studies using APP/PS1 mice and other animal studies.” left out

APP/PS1 mice [5] = experiment: Thioflavin T staining of amyloid plaque burden in brain sections; type: in vivo, mouse
Description: Transgenic mice and TUDCA treatment. APP/PS1 double-transgenic mice express human APP containing the KM670/671NL Swedish double mutation and human PS 1 carrying the L166P mutation under the control of a neuron-specific murine Thy-1 minigene promoter. The two transgenes cosegregate in these mice. APP/PS1 mice were maintained on a C57BL/6J genetic background and genotyped by PCR analysis of genomic DNA from tail biopsies. All animals were kept in standard animal cages under conventional laboratory conditions (12 h light/dark cycle, 22° C.), with ad libitum access to food and water. […]
Image analysis and semiquantification of immunofluorescence. Images were acquired with an Axioskop fluorescence microscope (Carl Zeiss GmbH, Hamburg, Germany). Semiquantitative analysis of mean fluorescence intensities (MFIs) of GFAP, Iba-I, and MAP2 were performed using NIH Image J software. […] An intensity threshold was set and kept constant for all images analyzed. MFI per square millimeter area was calculated by dividing the MFI units by the area of outlined regions and is presented as a bar graph. The total number of thioflavin- and Aβ-positive plaques in the hippocampus and frontal cortex was counted and presented as plaque number per square millimeter.

[6] = cited from earlier work
APP/PS1 mice [7] = experiment: Sandwich ELISA of Aβ1-40 and Aβ1-42 in brain extracts; type: in vivo, mouse; conditions: hippocampus and frontal cortex of APP/PS1 mice; p<0.01
Description: as §1
Sandwich ELISA. […] Total Aβ1-40 or Aβ1-42 content was measured by sandwich ELISA (Millipore) according to the manufacturer's instructions. Values were normalized to the respective total protein concentration and expressed as % of wild-type control.

APP/PS1 mice [8] = experiment: MAP2 immunoreactivity (neuronal integrity); type: in vivo, mouse
Description: as §1, §2

APP/PS1 mice [9] = experiment: Aβ immunohistochemistry (6E10), Aβ plaque number in brain; type: in vivo, mouse; conditions: TUDCA-treated APP/PS1 mice vs untreated transgenic mice
Description: as §1, §4

[10] = APP/PS1 mice hippocampus, p<0.05
[11] = TUDCA-treated APP/PS1 mice vs control transgenic mice

**Q.** For `C[C@H](CCC(=O)NCCS(=O)(=O)O)[C@H]1CC[C@H]2[C@@H]3[C@@H](O)C[C@@H]4C[C@H](O)CC[C@]4(C)[C@H]3CC[C@]12C` [TUDCA, tauroursodeoxycholic acid], which Iba-I immunoreactivity (APP/PS1 mice [1]; TUDCA-treated APP/PS1 mice relative to control APP/PS1 mice, p<0.05) is on record?
**A.** significantly less

**Q.** What about the “reactive microglia around amyloid plaques (Iba-I/thioflavin double-staining)” value (APP/PS1 mice [1]; brains of TUDCA-treated APP/PS1 mice vs control APP/PS1 mice) of the same molecule?
**A.** fewer reactive microglia

**Q.** What about the “A2M expression (mRNA)” value ([2]; APP/PS1 mice frontal cortex) of the same molecule?
**A.** trend for decreased

**Q.** What about the “APOE expression (mRNA)” value ([2]; APP/PS1 mice frontal cortex) of the same molecule?
**A.** trend for decreased

**Q.** What about the “CTGF expression (mRNA)” value ([2]; APP/PS1 mice frontal cortex, p<0.05) of the same molecule?
**A.** significantly decreased

**Q.** What about the “SORLA expression (mRNA)” value ([2]; APP/PS1 mice hippocampus) of the same molecule?
**A.** slightly increasing

**Q.** What about the “A2M expression (mRNA)” value [2, 10] of the same molecule?
**A.** significantly decreased

**Q.** What about the “APOE expression (mRNA)” value [2, 10] of the same molecule?
**A.** significantly decreased

**Q.** And the “CTGF expression (mRNA)” value [2, 10]?
**A.** significantly decreased

**Q.** And the GFAP immunoreactivity (APP/PS1 mice [3])?
**A.** decreased

**Q.** And the CTF-β levels (γ-secretase; TUDCA-fed transgenic mice vs control transgenic mice)?
**A.** decreased

**Q.** And the “total Aβ levels” value (γ-secretase; TUDCA-treated APP/PS1 mice vs control APP/PS1 mice)?
**A.** decreased

**Q.** What about the “full-length APP levels” value (γ-secretase; [11]) of the same molecule?
**A.** remained unchanged

**Q.** What about the “production of CTF-γ” value (γ-secretase; [11]) of the same molecule?
**A.** decrease

**Q.** What about the “downregulation of A2M expression” value (hepatocytes) of the same molecule?
**A.** greater than 10 fold

**Q.** And the “downregulation of CTGF expression” value (hepatocytes)?
**A.** greater than 10 fold

**Q.** What about the “recognition, and spatial and contextual fear memory” value (APP/PS1 mice [4]) of the same molecule?
**A.** improved

**Q.** And the “amyloid deposits (thioflavin staining)” value (APP/PS1 mice [5]; TUDCA-treated wild-type mice)?
**A.** absent

**Q.** And the thioflavin plaque number (APP/PS1 mice [5]; hippocampus and frontal cortex, APP/PS1 mice fed 0.4% (wt/wt) TUDCA for 6 months vs control transgenic mice, p<0.01)?
**A.** marked reduction

**Q.** And the oral bioavailability [6]?
**A.** orally bioavailable

**Q.** What about the Aβ1-40 levels (APP/PS1 mice [7]) of the same molecule?
**A.** significantly decreased

**Q.** What about the Aβ1-42 levels (APP/PS1 mice [7]) of the same molecule?
**A.** significantly decreased

**Q.** And the “integrity of the neuronal fibers around amyloid plaques (MAP2/amyloid double staining)” value (APP/PS1 mice [8]; brains of TUDCA-treated APP/PS1 mice)?
**A.** significant improvement

**Q.** And the MAP2 immunoreactivity (APP/PS1 mice [8]; hippocampus and frontal cortex of APP/PS1 mice, p<0.05)?
**A.** prevented the loss

**Q.** And the “decrease of Aβ plaque number” value (APP/PS1 mice [9]; frontal cortex, p<0.05)?
**A.** 40%

**Q.** What about the “decrease of Aβ plaque number” value (APP/PS1 mice [9]; hippocampus, p<0.01) of the same molecule?
**A.** ~65%
